How the values were obtained:
[1] = system: neuromuscular preparations (hemiinterseptum neuromuscule); assay: Muscle relaxation action: inhibition of nerve-evoked contraction of mouse neuromuscular preparation; assay type: cell-based, ddY mice; settings: read-out: Muscle relaxation action IC50 (90% reliance)
Procedure: Muscle relaxation action IC50)
(§1) To prepare neuromuscular preparations ddY mice 6 to 10 weeks old weighing 27.0 to 42.0 g were decapitated, venesected, and the hemiinterseptum neuromuscule was removed. This preparation was suspended by applying 1 gram of a strain in Krebs-Henseleit's solution at 36 ±1° C., through which a mixed gas of carbon dioxide/oxygen (5:95) was passed, an electric shock (0.4 to 0.5V, 0.2 Hz, […].) was applied to the nerve by platinum electrodes, and the resulting short contraction reaction was detected by an isometric transducer (Nippon Koden Sha, Japan) and recorded by a biophysiograph system (San-Ei, Japan). An average of 12 contraction height data obtained one minute prior to the administration of a test compound was used as a control. The test compound was accumulatively administered at two minute intervals, and the contraction height two minutes after each administration was compared with the control, to calculate the percentage of inhibition. To ensure the reliability of the tests, usually four measurements were used for each administration. The IC50 value was obtained on a line linearized by the method of least aqueous from a scope from a 10 to 60% inhibition in a log dose-inhibition curve.

[2] = system: neuromuscular preparations (hemiinterseptum neuromuscule); assay: Muscle relaxation action under a diabetic condition (neuromuscular preparations from alloxan-treated mice); assay type: cell-based; settings: Mus musculus; alloxan diabetic ddY mice 8 to 11 weeks old, blood glucose 310 to 460 mg/dl; parentheses: 90% reliance
Procedure: as §1, with “administration.” for “administration. The IC50 value was obtained on a line linearized by the method of least aqueous from a scope from a 10 to 60% inhibition in a log dose-inhibition curve.”
Muscle relaxation action under a diabetic condition IC50
Alloxan monohydrate (Nakarai Kagaku, Japan) was administered to the tail vein of ddY mice 4 to 5 weeks old, in a dose of 85 mg/kg, and the blood glucose level was monitored starting at the 28th day, by a glucose analyzer from the administration of alloxan (Bechmann Type II). Mice 8 to 11 weeks old and weighing 19.0 to 36.0 g, and having a blood glucose level of 310 to 460 mg/dl, were chosen and used to prepare neuromuscular preparations as described above.

[3] = ddY mice 6 to 10 weeks old, Krebs-Henseleit's solution, 36 ±1° C., contraction height two minutes after each cumulative administration, parentheses: 90% reliance

Structure (SMILES) | IC50 [1, 3] [µM] | IC50 [2] [µM] | IC50 [1] [µM]
C[N+](C)(C)CCCCCCCCCC[N+](C)(C)C [Decamethonium, reference compound] | 101 | 131 | 
C[N+](C)(C)CCCCc1ccc(CCCC[N+](C)(C)C)cc1 [Example 1, 1,4-Bis(4-trimethylammoniobutyl)benzene diiodide] |  | 25.9 | 22.8
C[N+](C)(C)CCCC(=O)c1ccc(C(=O)CCC[N+](C)(C)C)cc1 [Example 2, 1,4-Bis(4-trimethylammoniobutyryl)benzene diiodide] |  | 32.7 | 26
C[N+](C)(C)CCCC(O)c1ccc(C(O)CCC[N+](C)(C)C)cc1 (stereo not shown) [Example 3, 1,4-Bis(1-hydroxy-4-trimethylammoniobutyl)benzene diiodide] | 209 |  | 
CC(=O)OC(CCC[N+](C)(C)C)c1ccc(C(CCC[N+](C)(C)C)OC(C)=O)cc1 (stereo not shown) [Example 4, 1,4-Bis(1-acetoxy-4-trimethylammoniobutyl)benzene diiodide] |  |  | 450
CC[N+](CC)(CC)CCCc1ccc(CCC[N+](CC)(CC)CC)cc1 [Example 6, 1,4-Bis(3-triethylammoniopropyl)benzene diiodide] | 176 |  | 
C[N+]1(CCCc2ccc(CCC[N+]3(C)CCCCC3)cc2)CCCCC1 [Example 7, 1,4-Bis3-(1-methyl-1-piperidinio)propyl]benzene dibromide] |  |  | 119
c1cc[n+](CCCc2ccc(CCC[n+]3ccccc3)cc2)cc1 [Example 8, 1,4-Bis[3-(1-pyridinio)propyl]benzene dibromide] | 207 |  | 
CC[N+](CC)(CC)CCCCCc1ccc(CCCCC[N+](CC)(CC)CC)cc1 [Example 10, 1,4-Bis(5-triethylammoniopentyl)benzene diiodide] | 11.2 |  | 
C[N+]1(CCCCCc2ccc(CCCCC[N+]3(C)CCCCC3)cc2)CCCCC1 [Example 11] | 60.7 |  | 
C[N+](C)(C)CCOCc1ccc(COCC[N+](C)(C)C)cc1 [Example 12, 1,4-Bis(2-trimethylammonioethoxymethyl)benzene diiodide] |  |  | 750
C[N+](C)(C)CC(CCCc1ccc(CCCC(C[N+](C)(C)C)C[N+](C)(C)C)cc1)C[N+](C)(C)C [Example 13] | 1440 |  | 
C[N+](C)(C)CCCCCCCCc1ccccc1 [Example 15, N,N,N-Trimethyl-8-phenyloctylammonium p-tosylate] | 252 |  | 
C[N+](C)(C)CCCCc1cccc(CCCC[N+](C)(C)C)c1 [Example 16, 1,3-Bis(4-trimethylammoniobutyl)benzene diiodide] |  |  | 531
C[N+](C)(C)CCCCc1ccccc1CCCC[N+](C)(C)C [Example 17, 1,2-Bis(4-trimethylammoniobutyl)benzene diiodide] |  |  | 59.7
CC[N+](CC)(CC)CCCCc1ccc(CCCC[N+](CC)(CC)CC)cc1 [Example 18, 1,4-Bis(triethylammoniobutyl)benzene diiodide] | 52.4 | 51.1 | 
C[N+]1(CCCCc2ccc(CCCC[N+]3(C)CCCCC3)cc2)CCCCC1 [Example 19, 1,4-Bis[4-(1-methyl-1-piperidinio)butyl]benzene dibromide] | 95.9 |  | 

Structure (SMILES) | IC50 [1, 3] [µM] | IC50 [2] [µM] | IC50 [1] [µM]
C[N+](C)(C)CCCCCCc1ccc(CCCCCC[N+](C)(C)C)cc1 [Example 20, 1,4-Bis(6-trimethylammoniohexyl)benzene diiodide] |  | 21.7 | 15.9
CC[N+](CC)(CC)CCCCCCc1ccc(CCCCCC[N+](CC)(CC)CC)cc1 [Example 21, 1,4-Bis(6-triethylammoniohexyl)benzene diiodide] | 6.81 | 7.66 | 
C[N+]1(CCCCCCc2ccc(CCCCCC[N+]3(C)CCCCC3)cc2)CCCCC1 [Example 22, 1,4-Bis[6-(1-methyl-1-piperidinio)hexyl]benzene dibromide] | 17.3 | 21.8 | 
C[N+](C)(C)CCCCc1ccc(CCCC[N+](C)(C)C)c([N+](=O)[O-])c1 [Example 23, 1,4-Bis(4-trimethylammoniobutyl)-2-nitrobenzene diiodide] |  | 11.9 | 12.7
C[N+](C)(C)CCC#Cc1ccc(C#CCC[N+](C)(C)C)cc1 [Example 25, 1,4-Bis(4-trimethylammonio-1-butynyl)benzene diiodide] |  |  | 110
CC[N+](CC)(CC)CCCCCCc1ccc(CCCCCC[N+](CC)(CC)CC)c([N+](=O)[O-])c1 [Example 26, 1,4-Bis(6-triethylammoniohexyl)-2-nitrobenzene diiodide] | 4.52 |  | 
CC[N+](CC)(CC)CCCCCCCc1ccc(CCCCCCC[N+](CC)(CC)CC)cc1 [Example 27, 1,4-Bis(7-triethylammonioheptyl)benzene diiodide] | 5.96 |  | 
C[N+](C)(C)CCCSc1ccc(SCCC[N+](C)(C)C)cc1 [Example 28, 1,4-Bis(3-trimethylammoniopropylthio)benzene diiodide] | 3.89 |  | 
C[N+](C)(C)CCC[S+]([O-])c1ccc([S+]([O-])CCC[N+](C)(C)C)cc1 (stereo not shown) [Example 29, 1,4-Bis(3-trimethylammoniopropylsulfinyl)benzene diiodide] | 5.46 |  | 
C[N+](C)(C)CCCS(=O)(=O)c1ccc(S(=O)(=O)CCC[N+](C)(C)C)cc1 [Example 30, 1,4-Bis(3-trimethylammoniopropylsulfonyl)benzene diiodide] | 9.44 |  | 
C[N+](C)(C)CCCc1ccc2cc(CCC[N+](C)(C)C)ccc2c1 [Example 31, 2,6-Bis(3-trimethylammoniopropyl)naphthalene diiodide] | 186 |  | 
CC[N+](CC)(CC)CCCc1ccc2cc(CCC[N+](CC)(CC)CC)ccc2c1 [Example 32, 2,6-Bis(3-triethylammoniopropyl)naphthalene diiodide] | 79.1 |  | 
CC[N+](CC)(CC)CCCCCSc1ccc(SCCCCC[N+](CC)(CC)CC)cc1 [Example 33, 1,4-Bis(5-triethylammoniopentylthio)benzene diiodide] | 1.5 |  | 
C[N+](C)(C)CCCc1ccc(-c2ccc(CCC[N+](C)(C)C)cc2)cc1 [Example 34, 4,4'-Bis(3-trimethylammoniopropyl)biphenyl diiodide] |  |  | 132
CC[N+](CC)(CC)CCCc1ccc(-c2ccc(CCC[N+](CC)(CC)CC)cc2)cc1 [Example 35, 4,4'-Bis(3-triethylammoniopropyl)biphenyl diiodide] | 24.9 |  | 
CC[N+](CC)(CC)CCCCCCCCc1ccc(CCCCCCCC[N+](CC)(CC)CC)cc1 [Example 36, 1,4-Bis(8-triethylammoniooctyl)benzene diiodide] | 114 |  | 
C[N+](C)(C)CCOC(=O)CCC(=O)OCC[N+](C)(C)C [Succinylcholine, reference compound] | 25.2 | 19.3 | 
